Experimental data from patent publication US20050169992A1, “Methods and dosage forms for increasing solubility of drug compositions for controlled delivery” (priority 2003, published 2005).

Experiments:
[1] = Analytical Profiles of Drug Substances Volume 13, p 425; cited from earlier work
[2] = Saturated solubility of topiramate in de-ionized water and aqueous surfactant solutions at 37° C.; type: physicochemical; settings: Lutrol F127, F87, F108, F68 and Myrj 52 solutions at 1, 5, 15 weight percent, FIG. 6
Protocol: Aqueous solubility is determined by adding the therapeutic agent to stirred or agitated water maintained in a constant temperature bath at a temperature of 37 degrees centigrade until equilibrium is established between the dissolved and undissolved states and the concentration of dissolved drug is constant. The resulting solution saturated with active agent is then filtered, typically under pressure through a 0.8-micron Millipore filter, and the concentration in solution is measured by any appropriate analytical method including gravimetric, ultraviolet spectrophotometry, refractive index, refractive index chromatography, and the like.
The present invention involves a method to match the appropriate solid surfactant or blend of surfactants with a particular pharmaceutical active agent to produce the solubilizing core, or S-Core of the present invention. […] Then, pharmaceutical agent is added in excess to the surfactant solutions and the saturated solubility of the pharmaceutical active agent is then measured by an appropriate analytical method such as ultraviolet spectroscopy, chromatographic methods, or gravimetric analysis. […]
The aqueous surfactant solutions were then equilibrated to constant temperature in a 37° C. water bath. […] The resulting saturated solutions of drug were filtered through 0.8-micron filters and analyzed for drug concentration by refractive index chromatography. […]

Row | Topiramate solubility in water in the presence of surfactant compared to control [2] | SMILES | Solubility of phenytoin [1]
1 |  | O=C1NC(=O)C(c2ccccc2)(c2ccccc2)N1 [phenytoin] | 20 µg/mL
2 | increased | CC1(C)O[C@@H]2[C@@H](CO[C@@]3(COS(N)(=O)=O)OC(C)(C)O[C@@H]23)O1 [topiramate] | 
